Assay [1] deals with prototrophic yeast strain (CEN.PK113-7D). The assay is described as follows: Propidium iodide fluorescence-based CLS method in yeast (incl. high-throughput screening).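 As to PI intensity: untreated reference is eight DMSO and water control wells per plate.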 Format: cell-based, Saccharomyces cerevisiae. Particulars: concentration tested 100 μM; for Yeast CLS increase: Yes/No call of the screen; for PI intensity: solvent DMSO or water, chronological age point Day 7 (72 h growth = Day 1), lower = more survival. As for the experimental part: Yeast strain was recovered from frozen glycerol stock at 30° C. on YPD agar medium. Yeast was left to propagate in SD medium overnight at 30° C. with shaking at 220 revolutions per minute (rpm). Cells propagated overnight were diluted to a starting optical density at 600 nm (OD600) of approximately 0.2 in fresh SD medium to begin the chronological lifespan (CLS) experiments.
(§1) CLS experiments were performed in 96-well plates with 200 μL yeast culture. Cellular inoculums were transferred into 96-well plates containing serially double-diluted concentrations (0 to 10 nM) of rapamycin. Cellular inoculum was transferred into 96-well plates containing serially double-diluted concentrations (0 to 8 mM) of 2,5-anhydro-D-mannitol, D-fructose, D-mannitol, D-maltose, and D-sorbitol in SD medium. Cells were incubated at 30° C., and the growth was measured at different time points. […] Cell survival was quantified at various age time points by three different approaches: (i) PI fluorescence-based method, (ii) outgrowth in YPD liquid medium, and (iii) spotting assay (FIG. 1).
Yeast cells (40 μL) from different age time points were transferred into a second 96-well plate (different to the 96-well plate in which the CLS analysis as outlined above was performed). Cells were washed and incubated in 100 μL 1×phosphate buffered saline (PBS) with propidium iodide (PI) (5 μg/mL) for 15 minutes in the dark. Positive and negative control samples were included for quantitative analysis. Positive control (cells boiled at 100° C. for 15 minutes) was PI-stained and processed in the same 96-well plate. Samples without PI-stained cells served as the negative control. After incubation, cells were washed and resuspended in 100 μL PBS. The fluorescence reading of the samples (excitation and emission wavelengths at 535 nm and 617 nm, respectively) and OD600 were measured with a microplate reader (BioTek, Winooski, Vermont, United States). The fluorescence intensity of each sample was normalized with OD600. The background fluorescence signal of the unstained negative sample was subtracted from the normalized fluorescence intensity of each sample. The obtained fluorescence intensity of the positive control (boiled dead cells) was considered 0% cell survival. Cell death was validated by allowing the boiled dead cells to grow in medium. Cell survival at different age time points of samples were calculated by normalizing the fluorescence intensity with positive control sample (boiled cells).
High-throughput screening of various chemicals was tested using the same protocol for the propidium iodide fluorescence-based method as described above. The prototrophic yeast strain (CEN.PK113-7D) was grown in the synthetic defined medium with different chemical reagents at their respective single testing concentration (Table 1) in addition to eight replicates of DMSO and water controls in 96-well plates at 30° C.

Assay [2] has the same test system. The assay can be described thus: Yeast outgrowth in YPD liquid medium (CLS of aged cells). It counts as cell-based, Saccharomyces cerevisiae. To be noted: concentration tested 100 μM; OD600 nm after 24 h in YPD at 30° C.; age point day 14. As for the experimental part: as §1
Outgrowth (OD600) of aged cells was measured by the microplate reader. Quantification of cell survival for each age point was determined as relative to Day 1 (considered 100% cell survival). This quantification was performed by using the formula,
[formula] • where OutgrowthDay n refers to the OD600 nm absorbance reading recorded on a specific day, OutgrowthDay 1 refers to the OD600 nm absorbance reading recorded on the first day where 100% cell survival is assumed.
The CLS of the aged cells was further determined by the yeast outgrowth in YPD liquid medium method as described above. […] At chronological age point day 14, 3-μL of culture were transferred to a second 96-well plate containing 200 μL YPD medium.

Where a name gives a salt, the structure may show the parent alone.

`CSCCNc1nc(SCCC(F)(F)F)nc2c1ncn2[C@@H]1O[C@H](COP(=O)([O-])OP(=O)([O-])C(Cl)(Cl)P(=O)([O-])[O-])[C@@H](O)[C@H]1O.[Na+].[Na+].[Na+].[Na+]` [Cangrelor (tetrasodium), reference compound]: in assay [1], the “Yeast CLS increase” value was “No” and the PI intensity is given as 83,173.6. In addition, the Outgrowth in assay [2] came out at 0.1.

As for `C[C@]12CCC(=O)C=C1C=C[C@@H]1[C@@H]2CC[C@@]2(C)[C@H]1CC[C@@]21CCC(=O)O1` [Canrenone, reference compound], in assay [1], the “Yeast CLS increase” value is recorded as “No” and the PI intensity is given as 64,295.2. The Outgrowth in assay [2] is given as 0.1.

On to `CC1=C(C(=O)O)N2C(=O)[C@@H](NC(=O)[C@H](N)c3ccc(O)cc3)[C@H]2SC1` [Cefadroxil, reference compound], for which, in assay [1], the “Yeast CLS increase” value is recorded as “No” and the PI intensity is 70,326.1. The Outgrowth in assay [2] is given as 0.1.

For `CO/N=C(\C(=O)N[C@@H]1C(=O)N2C(C(=O)O)=C(Cn3ccc(=N)n3CCO)CS[C@H]12)c1csc(N)n1.O=S(=O)(O)O` [Cefoselis (sulfate), reference compound], in assay [1], the “Yeast CLS increase” value is “No” and the PI intensity is listed as 70,425.6. The same compound displayed an Outgrowth in assay [2] of 0.1.

In the case of `COCc1c(C(C)C)nc(C(C)C)c(/C=C/[C@@H](O)C[C@@H](O)CC(=O)[O-])c1-c1ccc(F)cc1.[Na+]` [Cerivastatin (sodium), reference compound], in assay [1], the “Yeast CLS increase” value is listed as “No” and the PI intensity is reported as 64,250.5. In assay [2], this compound displayed an Outgrowth of 0.1.

On to `O=C(/C=C/c1ccc(O)c(O)c1)O[C@@H]1C[C@](O)(C(=O)O)C[C@@H](O)[C@H]1O` [Chlorogenic acid], for which, in assay [1], the “Yeast CLS increase” value is recorded as “No” and the PI intensity is 66,593.5. For the same compound, the Outgrowth in assay [2] is 0.1.

For the compound `CC1(C)C[C@@H]1C(=O)N/C(=C\CCCCSC[C@H](N)C(=O)O)C(=O)O` [Cilastatin, reference compound], in assay [1], the “Yeast CLS increase” value is listed as “No” and the PI intensity is on record as 55,728.9. The same compound gave an Outgrowth in assay [2] of 0.1.

As to `O=C(O)C=Cc1ccccc1` [Cinnamic acid], in assay [1], the “Yeast CLS increase” value is on record as “No” and the PI intensity is given as 60,256.3. Also, the Outgrowth in assay [2] turned out to be 0.1.

Regarding `COc1cc2oc(-c3ccc(O)cc3)cc(=O)c2c(O)c1OC` [Cirsimaritin], in assay [1], the “Yeast CLS increase” value was “No” and the PI intensity is 85,017.1. Further, the Outgrowth in assay [2] was 0.1.

Take `O=C(/C=C/c1ccc(O)c(O)c1)O[C@H]1[C@H](O)C[C@](O)(C(=O)O)C[C@H]1O` [Cryptochlorogenic acid]: in assay [1], the “Yeast CLS increase” value is listed as “No” and the PI intensity is recorded as 65,040.0. In assay [2], the Outgrowth is 0.1.

As for `OC[C@H]1O[C@@H](Oc2cc3c(O)cc(O)cc3[o+]c2-c2ccc(O)c(O)c2)[C@H](O)[C@@H](O)[C@H]1O.[Cl-]` [Cyanidin-3-O-galactoside (chloride)], in assay [1], the “Yeast CLS increase” value was “No” and the PI intensity is recorded as 63,761.1. This compound showed an Outgrowth in assay [2] of 0.1.

As to `OC[C@H]1O[C@@H](O[C@H]2[C@H](O)[C@@H](O)[C@H](O)O[C@@H]2CO)[C@H](O)[C@@H](O)[C@@H]1O` [D-(+)-Cellobiose], in assay [1], the “Yeast CLS increase” value is given as “No” and the PI intensity is listed as 69,857.4. The same compound registered an Outgrowth in assay [2] of 0.1.

In the case of `O=C[C@H](O)[C@@H](O)[C@H](O)[C@H](O)C(=O)O` [D-Glucuronic acid], in assay [1], the “Yeast CLS increase” value is “No” and the PI intensity is on record as 48,839.6. The Outgrowth in assay [2] turned out to be 0.1.

`C[C@@H]1CC[C@@]2(OC1)O[C@H]1C[C@H]3[C@@H]4CC=C5C[C@@H](O[C@@H]6O[C@H](CO)[C@@H](O[C@@H]7O[C@H](CO)[C@@H](O)[C@H](O)[C@H]7O)[C@H](O)[C@H]6O[C@@H]6O[C@@H](C)[C@H](O)[C@@H](O)[C@H]6O)CC[C@]5(C)[C@H]4CC[C@]3(C)[C@H]1[C@@H]2C` [Deltonin]: in assay [1], the “Yeast CLS increase” value is “No” and the PI intensity is 62,357.6. The compound further showed an Outgrowth in assay [2] of 0.1.

As for `O=C(O)Cc1ccccc1Nc1c(Cl)cccc1Cl` [Diclofenac (Sodium), reference compound], in assay [1], the “Yeast CLS increase” value is reported as “No” and the PI intensity is given as 79,704.3. Moreover, the Outgrowth in assay [2] came to 0.2.

Turning to `CC(=O)OCC(=O)[C@@]1(OC(C)=O)[C@@H](C)C[C@H]2[C@@H]3C[C@H](F)C4=CC(=O)C=C[C@]4(C)[C@@]3(F)[C@@H](O)C[C@@]21C` [Diflorasone, reference compound], in assay [1], the “Yeast CLS increase” value is given as “No” and the PI intensity is 71,051.3. The Outgrowth in assay [2] is listed as 0.1.

In the case of `COS(=O)(=O)[O-].C[N+]1(C)CCC(=C(c2ccccc2)c2ccccc2)CC1` [Diphenmanil (methylsulfate), reference compound], in assay [1], the “Yeast CLS increase” value was “No” and the PI intensity is given as 78,623.4. In assay [2], this compound showed an Outgrowth of 0.1.

With `CC1(C)[C@@H](O[C@H]2O[C@H](C(=O)[O-])[C@@H](O)[C@H](O)[C@H]2O[C@@H]2O[C@H](C(=O)[O-])[C@@H](O)[C@H](O)[C@H]2O)CC[C@]2(C)[C@H]3C(=O)C=C4[C@@H]5C[C@@](C)(C(=O)O)CC[C@]5(C)CC[C@@]4(C)[C@]3(C)CC[C@@H]12.[K+].[K+]` [Dipotassium glycyrrhizinate], in assay [1], the “Yeast CLS increase” value is given as “No” and the PI intensity is on record as 68,519.8. Besides, in assay [2], the Outgrowth amounted to 0.1.

Consider `C[C@@H](O)[C@H]1C(=O)N2C(C(=O)O)=C(S[C@@H]3CN[C@H](CNS(N)(=O)=O)C3)[C@H](C)[C@H]12` [Doripenem (monohydrate), reference compound], for which, in assay [1], the “Yeast CLS increase” value is listed as “No” and the PI intensity is listed as 69,608.7. Moreover, the Outgrowth in assay [2] turned out to be 0.1.

As to `CC[C@H]1CN2CCc3cc(OC)c(OC)cc3[C@@H]2C[C@@H]1C[C@H]1NCCc2cc(OC)c(OC)cc21` [Emetine (dihydrochloride hydrate), reference compound], in assay [1], the “Yeast CLS increase” value is on record as “No” and the PI intensity is reported as 75,341.5. Further, in assay [2], the Outgrowth came out at 0.1.

`CC1OC(OC2C(=O)c3c(O)cc(O)cc3OC2c2ccc(O)cc2)C(O)C(O)C1O` (stereo not drawn) [Engeletin]: in assay [1], the “Yeast CLS increase” value is reported as “Yes” and the PI intensity is 37,144.4. In assay [2], this compound displayed an Outgrowth of 0.9.

Regarding `COc1cc2c(cc1OC)-c1cc3ccc4c(c3c[n+]1CC2)OCO4.[Cl-]` [Epiberberine (chloride)], in assay [1], the “Yeast CLS increase” value was “Yes” and the PI intensity is on record as 38,027.2. The compound also came in with an Outgrowth in assay [2] of 1.3.

In the case of `O=c1ccc2cc(O[C@@H]3O[C@H](CO)[C@@H](O)[C@H](O)[C@H]3O)c(O)cc2o1` [Esculin], in assay [1], the “Yeast CLS increase” value is recorded as “No” and the PI intensity is 72,890.7. In addition, the Outgrowth in assay [2] is listed as 0.1.

As to `CCOC(=O)c1ccc(O)cc1` [Ethylparaben], in assay [1], the “Yeast CLS increase” value is “No” and the PI intensity is given as 52,097.7. For the same compound, the Outgrowth in assay [2] worked out at 0.1.

Turning to `C=C1[C@H](OC(=O)c2ccccc2)C[C@H]2[C@@H](/C=C(\C)C(=O)[C@@]3(OC(C)=O)C[C@H](C)[C@H](OC(=O)c4ccccc4)[C@@H]3[C@H]1OC(C)=O)C2(C)C` [Euphorbia Factor L2], in assay [1], the “Yeast CLS increase” value was “No” and the PI intensity is recorded as 68,871.8. Also, the Outgrowth in assay [2] is reported as 0.1.

Source of the values: patent US20250161338A1, “Compounds for Anti-aging Intervention” (AGENCY FOR SCIENCE, TECHNOLOGY AND RESEARCH, priority 2022, published 2025).
